Paper PMC9960307, “Design, Synthesis, Biological Evaluation, and Molecular Dynamics Simulation of Influenza Polymerase PB2 Inhibitors” (Molecules, 2023)
Several values for one entry are separate records, joined by “and”; a condition that tells them apart may be missing. Equal values may be shown once. Read-outs that look alike come from different tables or passages of the source.

Columns and labels:
[1] = target: T1, influenza A/WSN/1933 (H1N1) PB2 CBD (aa.318-486) (Influenza A virus, UniProt P03427); assay: SPR competitive binding assay (Biacore T200)
T1 construct: influenza A/WSN/1933 (H1N1) PB2 CBD (aa.318-486); purchased
Description: Biomolecular interaction analysis based on surface plasmon resonance (SPR) assays was performed using VX-787 and comp. I and II at concentrations ranging from 20 to 0.156 µM to investigate their competitive binding affinities with PB2 (Table 1).
Commercial companies express and purify HIN1 PB2 CBD protein, which provides influenza A/WSN/1933 (H1N1) PB2 CBD (aa.318-486). Using a Biacore T200 (GE Healthcare) and a running buffer of which contains a solution of 1 × PBS-P + 0.02 M phosphate buffer, 2.7 mM KCl, 0.137 M NaCl, and 0.05% Tween 20, H1N1 PB2 was immobilized to a level of 4900 response units (RUs). Serial dilutions of small molecules were injected, ranging in concentration from 20 µM to 0.156 µM. GE Healthcare’s Biacore Evaluation Software was used to fit the resulting data to the affinity binding model.

[2] = parameters: method as in PMID 32604406; conditions: phase II clinical trial; cited from earlier work
in vitro [3] = conditions: rat, microsomes, pH 7.4, Microsome T1/2, Rat, rat liver microsomes, 1 μM
in vitro [4] = conditions: dog
aldehyde oxidase (AO) = target: T2, aldehyde oxidase (AO) (Homo sapiens, UniProt Q06278); assay: AO-mediated metabolic stability in human liver cytosol with/without raloxifene; type: in vitro ADME; conditions: for sensitivity to aldehyde oxidase (AO substrate or not): human liver cytosol, in words; for half-life at 1 μM: pooled liver (hepatocyte) cytosol, pH 7.4, human liver cytoplasm, read-out: Cytoplasm T1/2, Human
T2 construct: Human liver cytosolic protein was incubated with VX-787, comp; I, and comp; II; from tissue; host or cells: pooled human liver (hepatocyte) cytosol
T2 sequence (Q06278 1-1338): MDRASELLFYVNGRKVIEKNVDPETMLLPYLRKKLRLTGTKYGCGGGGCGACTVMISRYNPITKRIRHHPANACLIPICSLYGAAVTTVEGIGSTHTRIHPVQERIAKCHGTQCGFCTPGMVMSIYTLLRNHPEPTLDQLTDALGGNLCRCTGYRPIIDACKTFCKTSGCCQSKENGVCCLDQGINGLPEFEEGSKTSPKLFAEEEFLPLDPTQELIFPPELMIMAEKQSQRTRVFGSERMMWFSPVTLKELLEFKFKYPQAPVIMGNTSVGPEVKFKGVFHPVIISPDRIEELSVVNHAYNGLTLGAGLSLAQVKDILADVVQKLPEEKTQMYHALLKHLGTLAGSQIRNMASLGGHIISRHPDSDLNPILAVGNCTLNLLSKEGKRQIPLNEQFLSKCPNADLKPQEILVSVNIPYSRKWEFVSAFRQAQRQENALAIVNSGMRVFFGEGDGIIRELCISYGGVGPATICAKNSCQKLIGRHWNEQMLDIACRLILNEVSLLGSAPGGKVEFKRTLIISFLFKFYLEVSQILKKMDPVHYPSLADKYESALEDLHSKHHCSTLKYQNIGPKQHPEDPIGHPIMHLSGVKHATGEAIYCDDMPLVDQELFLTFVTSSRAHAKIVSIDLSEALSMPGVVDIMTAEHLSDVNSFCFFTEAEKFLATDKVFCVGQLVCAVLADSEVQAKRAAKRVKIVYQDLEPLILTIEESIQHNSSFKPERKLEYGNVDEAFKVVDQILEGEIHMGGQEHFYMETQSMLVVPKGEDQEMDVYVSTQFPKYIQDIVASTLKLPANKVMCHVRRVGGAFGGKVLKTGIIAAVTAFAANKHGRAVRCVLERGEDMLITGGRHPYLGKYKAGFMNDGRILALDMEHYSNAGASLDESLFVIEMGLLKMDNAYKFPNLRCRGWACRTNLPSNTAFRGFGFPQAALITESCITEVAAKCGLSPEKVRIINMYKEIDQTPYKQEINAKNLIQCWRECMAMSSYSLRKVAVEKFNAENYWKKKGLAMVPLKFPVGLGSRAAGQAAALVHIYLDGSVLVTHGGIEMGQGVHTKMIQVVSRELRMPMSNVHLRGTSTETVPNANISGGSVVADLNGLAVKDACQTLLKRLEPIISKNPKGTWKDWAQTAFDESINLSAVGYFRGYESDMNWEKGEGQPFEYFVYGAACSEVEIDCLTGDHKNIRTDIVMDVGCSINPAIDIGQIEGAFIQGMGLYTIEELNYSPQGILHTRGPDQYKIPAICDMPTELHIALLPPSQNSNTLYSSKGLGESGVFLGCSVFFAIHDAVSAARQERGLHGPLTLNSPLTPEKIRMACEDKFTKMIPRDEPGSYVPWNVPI

[5] = system: influenza virus A/Hong Kong/8/68 (H3N2); assay: Cytopathic effect (CPE) inhibition assay, H3N2; type: cell-based, influenza A/Hong Kong/8/68 (H3N2); conditions: MDCK cells, MOI 0.005, 72 h, CellTiter-Glo
virus-free cells = system: virus-free cells; parameters: method as in PMID 25547360; conditions: incubated in virus-free cells; cited from earlier work
[6] = not given; remark: listed apart in the source
in vitro [7] = conditions: human, microsomes, pH 7.4, Microsome T1/2, Human, human liver microsomes, 1 μM
[8] = system: influenza virus A/Puerto Rico/8/1934 (H1N1); assay: Cytopathic effect (CPE) inhibition assay, H1N1; type: cell-based, influenza A/Puerto Rico/8/1934 (H1N1); conditions: MDCK, 72 h, read-out: H1N1 IC50
[9] = oral dose 600 mg, bid, healthy volunteers; cited from earlier work
influenza virus = assay: CPE inhibition assay as summarised in the conclusions (strain not stated); type: cell-based; conditions: unidentified influenza virus
[10] = not given; remark: listed apart in the source
[11] = with AO inhibitor raloxifene, 0 min
[12] = with AO inhibitor raloxifene, 15 min
[13] = with AO inhibitor raloxifene, 30 min
[14] = with AO inhibitor raloxifene, 60 min

T1 sequence (P03427 318-486): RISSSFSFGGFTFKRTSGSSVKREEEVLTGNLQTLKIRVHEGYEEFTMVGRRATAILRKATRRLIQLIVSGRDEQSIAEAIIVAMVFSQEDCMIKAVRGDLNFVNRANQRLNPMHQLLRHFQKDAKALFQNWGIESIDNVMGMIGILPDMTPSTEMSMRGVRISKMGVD

In the case of `O=C(O)[C@H]1C2CCC(CC2)[C@@H]1Nc1nc(-c2c[nH]c3ncc(F)cc23)ncc1F` [VX-787, pimodivir, reference compound], the Kd ([1]; 20 to 0.156 µM, affinity binding model, read-out: SPR KD) is given as 152 nM, the adverse effects [2] is given as “no serious adverse effects” and the “viral load in patients” value [2] is given as “reduce the viral load”. For the same compound, the “Microsome Clh, Rat” value (rat liver microsomes) was 1.72 mL/min/kg, the “Residual percentage in rat liver microsome” value (with NADPH, 0 min) was 99.99±0.99% and the “Residual percentage in rat liver microsome” value (with NADPH, 5 min) was 98.25±4.53%. For the same compound, the “Residual percentage in rat liver microsome” value (with NADPH, 15 min) was 95.80±0.68%, the “Residual percentage in rat liver microsome” value (with NADPH, 30 min) was 91.51±3.09% and the “Residual percentage in rat liver microsome” value (with NADPH, 60 min) was 88.79±2.11% and 88%. For the same compound, the “Residual percentage in rat liver microsome” value (without NADPH, 0 min) was 99.99±2.01%, the “Residual percentage in rat liver microsome” value (without NADPH, 5 min) was 109.05% and the “Residual percentage in rat liver microsome” value (without NADPH, 15 min) was 103.93%. The “Residual percentage in rat liver microsome” value (without NADPH, 30 min) was 100.41%, the “Residual percentage in rat liver microsome” value (without NADPH, 60 min) was 92.13±5.76% and the half-life (in vitro [3]) was 4.16 h. For the same compound, the CC50 (in vitro [4]) was greater than 200000 nM, the “sensitivity to aldehyde oxidase (AO substrate or not)” value (shortened to “sensitivity … (AO substrate or not)”) (aldehyde oxidase (AO)) was “indeed an AO substrate” and the half-life at 1 μM (aldehyde oxidase (AO)) was 2.5 h. The “Residual percentage in 0.5mg/ml human liver cytoplasm” value (aldehyde oxidase (AO); [11]) was 100.00±3.54%, the “Residual percentage in 0.5mg/ml human liver cytoplasm” value (aldehyde oxidase (AO); [12]) was 100.65±7.76% and the “Residual percentage in 0.5mg/ml human liver cytoplasm” value (aldehyde oxidase (AO); [13]) was 97.25±1.77%. For the same compound, the “Residual percentage in 0.5mg/ml human liver cytoplasm” value (aldehyde oxidase (AO); without raloxifene, 0 min) was 100.00±7.65%, the “Residual percentage in 0.5mg/ml human liver cytoplasm” value (aldehyde oxidase (AO); without raloxifene, 15 min) was 87.02±9.00% and the “Residual percentage in 0.5mg/ml human liver cytoplasm” value (aldehyde oxidase (AO); without raloxifene, 30 min) was 90.17±9.31%. The “Residual percentage in 0.5mg/ml human liver cytoplasm” value (aldehyde oxidase (AO); without raloxifene, 60 min) was 71.87±6.78% and 72%, the IC50 [5] was less than 3 nM and the cytotoxicity (virus-free cells) was “no cytotoxicity”. The “Microsome Clh, Human” value ([6]; human liver microsomes) was 1.49 mL/min/kg, the “Residual percentage in human liver microsome” value ([6]; with NADPH, 0 min) was 99.99±4.23% and the “Residual percentage in human liver microsome” value ([6]; with NADPH, 5 min) was 103.84±1.21%. For the same compound, the “Residual percentage in human liver microsome” value ([6]; with NADPH, 15 min) was 91.56±7.20%, the “Residual percentage in human liver microsome” value ([6]; with NADPH, 30 min) was 101.85±8.49% and the “Residual percentage in human liver microsome” value ([6]; with NADPH, 60 min) was 89.33±8.96% and 89.33%. The “Residual percentage in human liver microsome” value ([6]; without NADPH, 0 min) was 100.00%, the “Residual percentage in human liver microsome” value ([6]; without NADPH, 5 min) was 110.26% and the “Residual percentage in human liver microsome” value ([6]; without NADPH, 15 min) was 100.78%. The “Residual percentage in human liver microsome” value ([6]; without NADPH, 30 min) was 113.32%, the “Residual percentage in human liver microsome” value ([6]; without NADPH, 60 min) was 107.81% and the half-life (in vitro [7]) was 5.82 h. For the same compound, the IC50 [8] was less than 3 nM and the “safety in phase I clinical trial” value [9] was “no safety issues”.
Work on `N=c1[nH]c2ncc(F)cc2n1-c1ncc(F)c(NC2C3CCC(CC3)C2C(=O)O)n1` [comp. II, (1R,2S,3S,4R)-3-((2-(2-amino-6-fluoro-1H-imidazo[4,5-b]20yridine-1-yl)-5-fluoropyrimidin-4-yl)amino)bicyclo[2.2.2]octane-2-carboxylic acid] yielded an EC50 (influenza virus) of 90 nM, a Kd [1] of 1670 nM and a half-life (in vitro [3]) greater than 13.3 h. The CC50 at 72 h (in vitro [4]) was greater than 200000 nM, the “sensitivity … (AO substrate or not)” value (aldehyde oxidase (AO)) was “nearly unaffected” and the half-life at 1 μM (aldehyde oxidase (AO)) was greater than 13.3 h. For the same compound, the “Residual percentage in 0.5mg/ml human liver cytoplasm” value (aldehyde oxidase (AO); [11]) was 100.00±8.74%, the “Residual percentage in 0.5mg/ml human liver cytoplasm” value (aldehyde oxidase (AO); [12]) was 110.60±4.82% and the “Residual percentage in 0.5mg/ml human liver cytoplasm” value (aldehyde oxidase (AO); [13]) was 107.60±7.80%. The “Residual percentage in 0.5mg/ml human liver cytoplasm” value (aldehyde oxidase (AO); [14]) was 109.12±6.67%, the “Residual percentage in 0.5mg/ml human liver cytoplasm” value (aldehyde oxidase (AO); without raloxifene, 0 min) was 100.00±0.44% and the “Residual percentage in 0.5mg/ml human liver cytoplasm” value (aldehyde oxidase (AO); without raloxifene, 15 min) was 107.07±16.04%. The “Residual percentage in 0.5mg/ml human liver cytoplasm” value (aldehyde oxidase (AO); without raloxifene, 30 min) was 108.17±9.51%, the “Residual percentage in 0.5mg/ml human liver cytoplasm” value (aldehyde oxidase (AO); without raloxifene, 60 min) was “barely changed” and the “Residual percentage in 0.5mg/ml human liver cytoplasm” value (aldehyde oxidase (AO); without raloxifene, 60 min, listed as Comp II) was 103.11±2.84%. For the same compound, the IC50 [5] was 70 ± 30 nM, the “Microsome Clh, Human” value ([6]; human, 1 μM, pH 7.4) was 0.46 mL/min/kg and the half-life (in vitro [7]) was greater than 13.3 h. The IC50 [8] was 90 ± 50 nM and the melting point [10] was 315 to 317 °C.
For `O=C(O)C1C2CCC(CC2)C1Nc1nc(-n2c(=O)[nH]c3ncc(F)cc32)ncc1F` [comp. I, (1R,2S,3S,4R)-3-((5-fluoro-2-(6-fluoro-2-oxo-2,3-dihydro-1H-imidazo[4,5-b]pyridin-1-yl)pyrimidin-4-yl)amino)bicyclo[2.2.2]octane-2-carboxylic acid], the EC50 (influenza virus) was 40 nM, the Kd [1] was 1400 nM and the “Residual percentage in rat liver microsome” value (rat, 0 min, 1 μM, pH 7.4) was 100.00%. The “Microsome Clh, Rat” value (rat, 1 μM, pH 7.4) was 0.53 mL/min/kg, the half-life (in vitro [3]) was greater than 13.3 h and the CC50 at 72 h (in vitro [4]) was greater than 200000 nM. For the same compound, the “sensitivity … (AO substrate or not)” value (aldehyde oxidase (AO)) was “remains as a substrate”, the half-life at 1 μM (aldehyde oxidase (AO)) was greater than 13.3 h and the “Residual percentage in 0.5mg/ml human liver cytoplasm” value (aldehyde oxidase (AO); [11]) was 100.00±3.87%. The “Residual percentage in 0.5mg/ml human liver cytoplasm” value (aldehyde oxidase (AO); [12]) was 108.27±5.07%, the “Residual percentage in 0.5mg/ml human liver cytoplasm” value (aldehyde oxidase (AO); [13]) was 102.66±4.43% and the “Residual percentage in 0.5mg/ml human liver cytoplasm” value (aldehyde oxidase (AO); [14]) was 112.89±1.99%. The “Residual percentage in 0.5mg/ml human liver cytoplasm” value (aldehyde oxidase (AO); without raloxifene, 0 min) was 100.00±6.12%, the “Residual percentage in 0.5mg/ml human liver cytoplasm” value (aldehyde oxidase (AO); without raloxifene, 15 min) was 95.20±3.72% and the “Residual percentage in 0.5mg/ml human liver cytoplasm” value (aldehyde oxidase (AO); without raloxifene, 30 min) was 99.98±8.74%. For the same compound, the “Residual percentage in 0.5mg/ml human liver cytoplasm” value (aldehyde oxidase (AO); without raloxifene, 60 min) was 93%, the “Residual percentage in 0.5mg/ml human liver cytoplasm” value (aldehyde oxidase (AO); without raloxifene, 60 min, listed as Comp I) was 93.52±8.82% and the IC50 [5] was 40 ± 10 nM. The half-life (in vitro [7]) was greater than 13.3 h and the IC50 [8] was 70 ± 20 nM.
